Results: US9776995B2, “Bicyclic sulfonamide compounds as sodium channel inhibitors” (AMGEN INC., priority 2013, dated 2017)

target: T1, Nav 1.7 (Homo sapiens (Human), UniProt Q15858); experiment: Nav 1.7 in vitro PX assay (PatchXpress whole cell voltage clamp); format: cell-based; conditions: HEK 293 cells stably transfected with human Nav1.7; PatchXpress; partially inactivated state;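 further: holding potential set for 20 to 50% inactivation, sodium current evoked by a 20 ms step to −10 mV, peak current inhibition read after compound exposure, 3–5 cells per concentration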
T1 sequence (Q15858 whole entry): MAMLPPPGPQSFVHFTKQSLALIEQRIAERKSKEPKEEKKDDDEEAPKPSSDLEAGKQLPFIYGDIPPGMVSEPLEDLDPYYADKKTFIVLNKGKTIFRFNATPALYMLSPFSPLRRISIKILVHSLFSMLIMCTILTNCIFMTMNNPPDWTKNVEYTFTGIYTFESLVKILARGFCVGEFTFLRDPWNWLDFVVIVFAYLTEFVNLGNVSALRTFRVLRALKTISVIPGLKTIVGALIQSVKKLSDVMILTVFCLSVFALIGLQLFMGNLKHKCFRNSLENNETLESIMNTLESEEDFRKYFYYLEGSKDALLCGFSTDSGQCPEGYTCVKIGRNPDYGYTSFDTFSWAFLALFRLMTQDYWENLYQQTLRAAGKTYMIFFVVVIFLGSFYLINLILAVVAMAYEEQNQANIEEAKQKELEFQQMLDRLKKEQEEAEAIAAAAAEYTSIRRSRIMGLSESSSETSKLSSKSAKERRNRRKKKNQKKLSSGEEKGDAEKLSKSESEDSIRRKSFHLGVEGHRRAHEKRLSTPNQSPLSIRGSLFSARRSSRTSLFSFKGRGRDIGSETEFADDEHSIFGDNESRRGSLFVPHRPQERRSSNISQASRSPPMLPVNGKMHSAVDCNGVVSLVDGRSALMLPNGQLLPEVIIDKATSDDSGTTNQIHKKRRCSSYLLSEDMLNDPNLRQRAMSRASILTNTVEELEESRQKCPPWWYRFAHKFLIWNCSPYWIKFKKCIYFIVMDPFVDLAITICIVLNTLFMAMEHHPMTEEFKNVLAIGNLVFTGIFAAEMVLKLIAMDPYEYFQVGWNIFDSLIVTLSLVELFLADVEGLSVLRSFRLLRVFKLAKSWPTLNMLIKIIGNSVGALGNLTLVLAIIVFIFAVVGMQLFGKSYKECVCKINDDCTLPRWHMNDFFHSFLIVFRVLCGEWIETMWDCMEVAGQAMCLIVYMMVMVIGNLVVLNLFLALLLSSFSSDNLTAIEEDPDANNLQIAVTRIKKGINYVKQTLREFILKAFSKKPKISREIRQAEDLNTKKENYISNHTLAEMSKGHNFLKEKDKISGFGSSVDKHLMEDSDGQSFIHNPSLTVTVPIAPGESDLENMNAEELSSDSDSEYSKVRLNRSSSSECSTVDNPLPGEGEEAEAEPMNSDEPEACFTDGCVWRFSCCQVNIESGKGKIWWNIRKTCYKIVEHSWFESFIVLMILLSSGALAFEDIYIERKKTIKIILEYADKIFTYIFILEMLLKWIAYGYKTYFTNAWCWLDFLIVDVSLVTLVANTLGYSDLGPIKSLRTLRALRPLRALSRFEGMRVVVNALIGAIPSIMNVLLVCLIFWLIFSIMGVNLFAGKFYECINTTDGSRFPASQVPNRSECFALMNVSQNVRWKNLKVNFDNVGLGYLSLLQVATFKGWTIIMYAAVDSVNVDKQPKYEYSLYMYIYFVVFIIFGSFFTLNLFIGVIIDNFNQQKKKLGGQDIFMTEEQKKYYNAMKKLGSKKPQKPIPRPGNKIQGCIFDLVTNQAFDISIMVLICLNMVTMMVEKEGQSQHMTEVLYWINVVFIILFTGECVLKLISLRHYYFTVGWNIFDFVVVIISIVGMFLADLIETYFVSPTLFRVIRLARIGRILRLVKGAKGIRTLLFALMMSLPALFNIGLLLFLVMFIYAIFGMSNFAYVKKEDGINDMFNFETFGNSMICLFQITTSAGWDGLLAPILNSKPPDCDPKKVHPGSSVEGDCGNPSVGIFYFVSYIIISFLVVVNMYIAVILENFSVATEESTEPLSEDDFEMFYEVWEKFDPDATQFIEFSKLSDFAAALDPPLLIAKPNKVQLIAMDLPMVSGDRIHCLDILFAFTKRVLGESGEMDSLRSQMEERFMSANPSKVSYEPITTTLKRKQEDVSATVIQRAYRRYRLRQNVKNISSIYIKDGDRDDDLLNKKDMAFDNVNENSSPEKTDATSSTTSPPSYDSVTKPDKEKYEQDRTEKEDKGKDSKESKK

Row | SMILES | IC50
1 | COc1cc(-c2cccc(F)c2)c(Cl)cc1-c1c(C)nnc2cc(S(=O)(=O)Nc3ccon3)ccc12 (atropisomer, axis not shown; (P)) [Example 442, (P)-4-(2-chloro-3′-fluoro-5-methoxy-[1,1′-biphenyl]-4-yl)-N-(isoxazol-3-yl)-3-methylcinnoline-7-sulfonamide] | 251 nM
2 | COc1cc(-c2cccc(Cl)c2)c(Cl)cc1-c1ncnc2cc(S(=O)(=O)Nc3ncccn3)ccc12 [Example 437, 4-(2,3′-DICHLORO-5-METHOXY-[1,1′-BIPHENYL]-4-YL)-N-(PYRIMIDIN-2-YL)QUINAZOLINE-7-SULFONAMIDE] | 72 nM
3 | COc1cc(-c2cccc(Cl)c2)c(F)cc1-c1ncnc2cc(S(=O)(=O)Nc3ccsn3)ccc12 [Example 377, 4-(3′-Chloro-2-fluoro-5-methoxy-4-biphenylyl)-N-3-isothiazolyl-7-quinazolinesulfonamide] | 90 nM
4 | CCc1nnc2cc(S(=O)(=O)Nc3ccon3)ccc2c1-c1cc(Cl)c(-c2cccc(F)c2)cc1OC (atropisomer, axis not shown; (M)) [Example 443, (M)-4-(2-chloro-3′-fluoro-5-methoxy-[1,1′-biphenyl]-4-yl)-3-ethyl-N-(isoxazol-3-yl)cinnoline-7-sulfonamide] | 87 nM
5 | COc1ccc(F)c(-c2cc(OC)c(-c3ncnc4cc(S(=O)(=O)Nc5ccon5)ccc34)cc2C)c1 [Example 561, 4-(2′-fluoro-5,5′-dimethoxy-2-methyl-4-biphenylyl)-N-3-isoxazolyl-7-quinazolinesulfonamide] | 89 nM
6 | COc1cc(F)c(-c2cncc(F)c2)cc1-c1nccc2cc(S(=O)(=O)Nc3ccon3)ccc12 [Example 392, 1-(4-fluoro-5-(5-fluoropyridin-3-yl)-2-methoxyphenyl)-N-(isoxazol-3-yl)isoquinoline-6-sulfonamide 2,2,2-trifluoroacetate] | 491 nM
7 | COc1cc(-c2cc(F)cc(Cl)c2)c(F)cc1-c1c[nH]c(=O)c2cc(S(=O)(=O)Nc3ccon3)ccc12 [Example 451, 4-(3′-CHLORO-2,5′-DIFLUORO-5-METHOXY-[1,1′-BIPHENYL]-4-YL)-N-(ISOXAZOL-3-YL)-1-OXO-1,2-DIHYDROISOQUINOLINE-7-SULFONAMIDE] | 77 nM
8 | COc1cc(-c2cc(F)cc(C3CC3)c2)c(C)cc1-c1ncnc2cc(S(=O)(=O)Nc3ccon3)ccc12 [Example 555, 4-(3′-cyclopropyl-5′-fluoro-5-methoxy-2-methyl-4-biphenylyl)-N-3-isoxazolyl-7-quinazolinesulfonamide] | 61 nM
9 | COc1cc(-c2cc(F)cc(Cl)c2)c(F)cc1-c1cn(C)c(=O)c2cc(S(=O)(=O)Nc3ccon3)ccc12 [Example 453, 4-(3′-CHLORO-2,5′-DIFLUORO-5-METHOXY-[1,1′-BIPHENYL]-4-YL)-N-(ISOXAZOL-3-YL)-2-METHYL-1-OXO-1,2-DIHYDROISOQUINOLINE-7-SULFONAMIDE] | 48 nM
10 | COc1cc(-c2c(F)cccc2F)c(C)cc1-c1ncnc2cc(S(=O)(=O)Nc3ccon3)ccc12 [Example 565, 4-(2′,6′-difluoro-5-methoxy-2-methyl-4-biphenylyl)-N-3-isoxazolyl-7-quinazolinesulfonamide] | 199 nM

The next lines start with the values.

Row | IC50 | SMILES
11 | 6 nM | COc1cc(-c2cc(F)cc(Cl)c2)c(F)cc1-c1c(=O)[nH]cc2cc(S(=O)(=O)Nc3ccon3)ccc12 [Example 550, 4-(3′-chloro-2,5′-difluoro-5-methoxy-4-biphenylyl)-N-3-isoxazolyl-3-oxo-2,3-dihydro-7-isoquinolinesulfonamide]
12 | 298 nM | COc1cc(-c2cccc(Cl)c2)cc(F)c1-c1nccc2cc(S(=O)(=O)Nc3ccon3)ccc12 [Example 538, 1-(3′-chloro-3-fluoro-5-methoxy-4-biphenylyl)-N-3-isoxazolyl-6-isoquinolinesulfonamide]

same assay, conditions: PatchXpress (PX)

Row | SMILES | IC50
13 | COc1cc(-c2ccc(Cl)c(C)c2)c(C)cc1-c1ncnc2cc(S(=O)(=O)Nc3ccon3)ccc12 [Example 252, 4-(4′-chloro-5-methoxy-2,3′-dimethyl-4-biphenylyl)-N-3-isoxazolyl-7-quinazolinesulfonamide] | 32 nM
14 | COc1cc(-c2ccc(Cl)c(C)c2)c(Cl)cc1-c1nncc2cc(S(=O)(=O)Nc3ccsn3)ccc12 [Example 255, 1-(2,4′-dichloro-5-methoxy-3′-methyl-4-biphenylyl)-N-3-isothiazolyl-6-phthalazinesulfonamide] | 320 nM

The remaining lines, values ahead:

Row | IC50 | SMILES
15 | 47.2 nM | COc1cc(-c2ccc(Cl)c(F)c2)c(C)cc1-c1ncnc2cc(S(=O)(=O)Nc3ccon3)ccc12 [Example 271, 4-(4′-chloro-3′-fluoro-5-methoxy-2-methyl-4-biphenylyl)-N-3-isoxazolyl-7-quinazolinesulfonamide]
16 | 543 nM | COc1cc(C(F)(F)F)c(C2CC2)cc1-c1nccc2cc(S(=O)(=O)Nc3ccon3)ccc12 [Example 258, 1-(5-cyclopropyl-2-methoxy-4-(trifluoromethyl)phenyl)-N-3-isoxazolyl-6-isoquinolinesulfonamide]
17 | 40 nM | COc1cc(-c2cccc(Cl)c2)c(C)cc1-c1nccc2cc(S(=O)(=O)Nc3ccon3)ccc12 [Example 277, 1-(3′-chloro-5-methoxy-2-methyl-4-biphenylyl)-N-3-isoxazolyl-6-isoquinolinesulfonamide]
18 | 15.4 nM | COc1cc(-c2ccc(Cl)c(C)c2)c(Cl)cc1-c1nncc2cc(S(=O)(=O)Nc3ccon3)ccc12 [Example 245, 1-(2,4′-dichloro-5-methoxy-3′-methyl-4-biphenylyl)-N-3-isoxazolyl-6-phthalazinesulfonamide]

same assay, conditions: in-vitro Nav 1.7 PX (PatchXpress)

Row | IC50 | SMILES
19 | 26 nM | COc1cc(-c2cc(Cl)cc(Cl)c2)c(F)cc1-c1ncnc2cc(S(=O)(=O)Nc3ccon3)ccc12 [Example 300, 4-(3′,5′-dichloro-2-fluoro-5-methoxy-4-biphenylyl)-N-3-isoxazolyl-7-quinazolinesulfonamide]
20 | 105 nM | COc1cc(-c2ccc(C)c(Cl)c2F)c(F)cc1-c1ncnc2cc(S(=O)(=O)Nc3ccon3)ccc12 [Example 296, 4-(3′-chloro-2,2′-difluoro-5-methoxy-4′-methyl-4-biphenylyl)-N-3-isoxazolyl-7-quinazolinesulfonamide]
21 | 16.4 nM | COc1ccc(Cl)cc1-c1cc(OC)c(-c2nccc3cc(S(=O)(=O)Nc4ccon4)ccc23)cc1C [Example 281, 1-(5′-chloro-2′,5-dimethoxy-2-methyl-4-biphenylyl)-N-3-isoxazolyl-6-isoquinolinesulfonamide]
22 | 74 nM | COc1cc(-c2cc(C)cc(Cl)c2)c(F)cc1-c1ncnc2cc(S(=O)(=O)Nc3ccon3)ccc12 [Example 297, 4-(3′-chloro-2-fluoro-5-methoxy-5′-methyl-4-biphenylyl)-N-3-isoxazolyl-7-quinazolinesulfonamide]
23 | 407 nM | COc1cc(-c2ccc(Cl)c(F)c2)ccc1-c1nccc2cc(S(=O)(=O)Nc3ncccn3)ccc12 [Example 293, 1-(4′-chloro-3′-fluoro-3-methoxy-4-biphenylyl)-N-2-pyrimidinyl-6-isoquinolinesulfonamide]
24 | 1160 nM | COc1cc(-c2cccc(F)c2)c(Cl)cc1-c1cccc2cc(S(=O)(=O)Nc3ccon3)ccc12 [Example 291, 5-(2-chloro-3′-fluoro-5-methoxy-4-biphenylyl)-N-3-isoxazolyl-2-naphthalenesulfonamide]
25 | 22.8 nM | COc1cc(-c2ccc(F)c(Cl)c2)c(C)cc1-c1nccc2cc(S(=O)(=O)Nc3ccon3)ccc12 [Example 284, 1-(3′-chloro-4′-fluoro-5-methoxy-2-methyl-4-biphenylyl)-N-3-isoxazolyl-6-isoquinolinesulfonamide]

target: T1, Nav 1.7; experiment: in-vitro Nav 1.7 PX data; format: cell-based; conditions: not given

Row | SMILES | IC50
26 | COc1cc(-c2cccc(C(F)(F)F)c2)c(F)cc1-c1nncc2cc(S(=O)(=O)Nc3ccon3)ccc12 [Example 3, 1-(2-FLUORO-5-METHOXY-3′-(TRIFLUOROMETHYL)-[1,1′-BIPHENYL]-4-YL)-N-(ISOXAZOL-3-YL)PHTHALAZINE-6-SULFONAMIDE] | 30.5 nM

same assay, conditions: PatchXpress (PX), in vitro

Row | IC50 | SMILES
27 | 7710 nM | COc1nc(N2CCCC2)ccc1-c1nccc2cc(S(=O)(=O)Nc3ccncn3)ccc12 [Example 72, 1-(2-methoxy-6-(1-pyrrolidinyl)-3-pyridinyl)-N-4-pyrimidinyl-6-isoquinolinesulfonamide]

same assay, conditions: in-vitro Nav 1.7 PX data

Row | IC50 | SMILES
28 | 5690 nM | Cc1ccc(Oc2ccccn2)cc1-c1nccc2cc(S(=O)(=O)Nc3ccncn3)ccc12 [Example 40, 1-(2-METHYL-5-(PYRIDIN-2-YLOXY)PHENYL)-N-(PYRIMIDIN-4-YL)ISOQUINOLINE-6-SULFONAMIDE]
29 | 652 nM | COc1cc(-c2cc(F)cc(F)c2)ccc1-c1nccc2cc(S(=O)(=O)Nc3cnccn3)ccc12 [Example 140, 1-(3′,5′-difluoro-3-methoxy-4-biphenylyl)-N-2-pyrazinyl-6-isoquinolinesulfonamide]

same assay, conditions: in-vitro PX

Row | IC50 | SMILES
30 | 1050 nM | COc1cc(-c2cccc(F)c2)ccc1-c1ccnc2cc(S(=O)(=O)Nc3nncs3)ccc12 [Example 210, 4-(3′-fluoro-3-methoxy-4-biphenylyl)-N-1,3,4-thiadiazol-2-yl-7-quinolinesulfonamide]

same assay, conditions: in-vitro PX (PatchXpress) data

Row | IC50 | SMILES
31 | 110 nM | COc1cc(-c2cccc(F)c2)c(Cl)cc1-c1ncnc2cc(S(=O)(=O)Nc3cccnn3)ccc12 [Example 15, 4-(2-CHLORO-3′-FLUORO-5-METHOXY-[1,1′-BIPHENYL]-4-YL)-N-(PYRIDAZIN-3-YL)QUINAZOLINE-7-SULFONAMIDE]
32 | 453 nM | COc1cc(-c2cc(F)cc(F)c2)ccc1-c1ccnc2cc(S(=O)(=O)Nc3nncs3)ccc12 [Example 13, 4-(3′,5′-DIFLUORO-3-METHOXY-[1,1′-BIPHENYL]-4-YL)-N-(1,3,4-THIADIAZOL-2-YL)QUINOLINE-7-SULFONAMIDE]

same assay, conditions: in-vitro PX data

Row | IC50 | SMILES
33 | 1630 nM | COc1cc(-c2cc(F)cc(F)c2)ccc1-c1nccc2cc(S(=O)(=O)Nc3cncc(C)n3)ccc12 [Example 131, 1-(3′,5′-difluoro-3-methoxy-4-biphenylyl)-N-(6-methyl-2-pyrazinyl)-6-isoquinolinesulfonamide]
34 | 22.9 nM | COc1cc(-c2cccc(C(F)(F)F)c2)c(F)cc1-c1ncnc2cc(S(=O)(=O)Nc3ccon3)ccc12 [Example 102, 4-(2-fluoro-5-methoxy-3′-(trifluoromethyl)-4-biphenylyl)-N-3-isoxazolyl-7-quinazolinesulfonamide]
